Measured values taken from patent US9017692B2, “Antimicrobial agent, bacterial strain, biosynthesis, and methods of use” (priority 2011, dated 2015).

Key:
PAE.44 = experiment: MIC, CLSI broth microdilution, Gram-negative clinical isolates; type: cell-based, Pseudomonas aeruginosa
Experimental: (§1) Plates were incubated at 35° C. for 24 h.
(§2) The activity of paenibacterin was also tested against clinical isolates of the following Gram-negative bacterial strains: four strains of the species Pseudomonas aeruginosa (PAE), three strains of the species Acinetobacter baumannii (ABA), two strains of the species Escherichia coli (ECO), and four strains of the species Klebsiella pneumoniae (KPN). Particularly, the strains of Gram-negative bacteria included polymyxin B-resistant (PMB-R) and polymyxin B-sensitive (PMB-S) strains of each above listed species. The MICs were determined using the above described CLSI broth microdilution method, in which the method was performed with both non-binding surface coated (NBS) and polystyrene (PS) 96-well plates (Tables 11 and 12, respectively). The MICs were generally lower in the NBS 96-well plates as compared to the PS 96-well plates.

PAE.2325 = experiment: as above; type: cell-based, Pseudomonas aeruginosa
Experimental: as §1, §2

PAE.2281 = experiment: as above; type: cell-based, Pseudomonas aeruginosa
Experimental: as §1, §2

PAE.999 = experiment: as above; type: cell-based, Pseudomonas aeruginosa
Experimental: as §1, §2

[1] = test system: DR-VRE from EFS.807 EFS.2731; experiment: microbe, parasite or virus in culture; details: EFS.2731, DR-VRE from EFS.807; NBS 96-well plates
Experimental: (§3) The activity of paenibacterin against several strains of Gram-positive and Gram-negative foodborne pathogens is summarized in Table 10. The data is reported as minimum inhibitory concentrations (MIC) as an average of three replicates for paenibacterin against the various listed bacterial strains. […] MICs were determined according to the CLSI broth microdilution method (see, Clinical and Laboratory Standards Institute (CLSI). 2009. Methods for dilution antimicrobial susceptibility tests for bacteria that grow aerobically; approved standard. […]. CLSI, Wayne, Pa.). Briefly, HPLC-purified paenibacterin was dissolved in methanol and diluted to appropriate concentration with cation-adjusted Mueller-Hinton II broth (Difco). Aliquots (25 μl) of serially-diluted paenibacterin was dispensed into wells of a 96-well plate; an equal amount of 1/10 diluted overnight bacterial culture was added to wells. Plates were incubated at 35° C. for 24 h. Cell growth after incubation was examined and determined using a microtiter plate reader at 600 nm. Concentration of paenibacterin is determined based on a molecular weight of 1604 Da.
(§4) The activity of paenibacterin was further tested against clinical isolates of the following Gram-positive bacteria: methicillin-sensitive Staphylococcus aureus (MSSA), methicillin-resistant S. aureus (MRSA), vancomycin-sensitive Enterococcus faecalis, vancomycin-resistant E. faecalis (VRE), Streptococcus pneumoniae, and laboratory derived daptomycin-resistant (DR) MSSA, MRSA, and VRE strains. The MICs were determined using the above described CLSI broth microdilution method, in which the method was performed with non-binding surface coated (NBS) 96-well plates.

WT ATCC 29212 EFS.43 = experiment: microbe, parasite or virus in culture; details: EFS.43, WT ATCC 29212; NBS 96-well plates
Experimental: as §3, §4

[2] = test system: DR-MSSA from SAU.42 SAU.278; experiment: microbe, parasite or virus in culture; details: SAU.278, DR-MSSA from SAU.42; NBS 96-well plates
Experimental: as §3, §4

MSSA ATCC 29213 SAU.42 = experiment: microbe, parasite or virus in culture; details: SAU.42, MSSA ATCC 29213; NBS 96-well plates
Experimental: as §3, §4

[3] = test system: DR-MRSA from MW2 SP SAU.1616; experiment: microbe, parasite or virus in culture; details: SAU.1616, DR-MRSA from MW2 SP; NBS 96-well plates
Experimental: as §3, §4

[4] = test system: DS-VRE ATCC 700802 EFS.807; experiment: microbe, parasite or virus in culture; details: EFS.807, DS-VRE ATCC 700802; NBS 96-well plates
Experimental: as §3, §4

MRSA ATCC 43300 SAU.399 = experiment: microbe, parasite or virus in culture; details: SAU.399, MRSA ATCC 43300; NBS 96-well plates
Experimental: as §3, §4

WT ATCC 49619 SPN.31 = experiment: microbe, parasite or virus in culture; details: SPN.31, WT ATCC 49619; NBS 96-well plates
Experimental: as §3, §4

ATCC 25922 ECO.35 = experiment: MIC, CLSI broth microdilution, Gram-negative clinical isolates; type: cell-based, Escherichia coli
Experimental: as §1, §2

ECO.2276 = experiment: as above; type: cell-based, Escherichia coli
Experimental: as §1, §2

C. difficile CL148 = experiment: Spot-on-lawn antimicrobial activity; type: cell-based, Clostridium difficile; details: BHIYE
Experimental: Spot-on-lawn method [He, Z., et al., Appl. Environ. Microbiol., (2007) 73:168-178] was used for the bioassay of antimicrobial activity. Bacterial indicators were incubated at 37° C. for 24 h, except Pseudomonas putida, Clostridium difficile and methycillin resistant Staphylococcus aureus which were incubated for 48 h (Table 1). The indicator overlay was prepared by pouring 10 ml soft agar (seeded with 10 μL indicator culture) onto tryptose agar as basal medium in a petri dish. Purified antimicrobials were two-fold serially diluted and aliquots (10 μL each) were spotted onto the soft agar. The plates were incubated overnight and inspected for the presence of growth inhibition zones. Antimicrobial activity was expressed in arbitrary units (AU)/mL; this value is the reciprocal of the highest dilution displaying a zone of inhibition corresponding to 1 mL of the non-diluted antimicrobial preparation.
Purified paenibacterin was used for the antimicrobial spectrum test. Microorganisms tested for sensitivity to this compound included pathogenic (e.g., Salmonella Typhimurium, Escherichia coli O157:H7, Listeria monocytogenes, and Staphylococcus aureus) and non-pathogenic (e.g., Escherichia coli K-12, Pseudomonas putida, and Enterococcus faecalis) bacteria (Table 1).

[5] = test system: polymixin B-sensitive strains of Escherichia coli; experiment: MIC, Table 11; type: cell-based; details: NBS plates
Experimental: as §1, §2

[6] = test system: polymixin B-sensitive strains of Pseudomonas aeruginosa; experiment: MIC, Table 11; type: cell-based; details: NBS plates
Experimental: as §1, §2

[7] = test system: polymixin B-sensitive strains of Klebsiella pneumoniae; experiment: MIC, Table 11; type: cell-based; details: NBS plates
Experimental: as §1, §2

[8] = test system: polymyxin B-resistant and polymyxin B-sensitive strains of Acinetobacter baumannii; experiment: MIC, Table 11; type: cell-based; details: Table 11 (NBS plates)
Experimental: as §1, §2

Substance: paenibacterin
- Minimum inhibitory concentration (MIC) (PAE.44; non-binding surface coated (NBS) 96-well plates): 8 µg/mL
- Minimum inhibitory concentration (MIC) (PAE.44; polystyrene (PS) 96-well plates): 64 µg/mL
- Minimum inhibitory concentration (MIC) (PAE.2325; NBS 96-well plates): 16 µg/mL
- Minimum inhibitory concentration (MIC) (PAE.2325; PS 96-well plates): 64 µg/mL
- Minimum inhibitory concentration (MIC) (PAE.2281; NBS 96-well plates): 32 to 64 µg/mL
- Minimum inhibitory concentration (MIC) (PAE.2281; PS 96-well plates): 64 µg/mL
- Minimum inhibitory concentration (MIC) (PAE.999; NBS 96-well plates): 8 µg/mL
- Minimum inhibitory concentration (MIC) (PAE.999; PS 96-well plates): 64 µg/mL
- Minimum inhibitory concentration (MIC) [1]: 8 µg/mL
- Minimum inhibitory concentration (MIC) (WT ATCC 29212 EFS.43): 32 to 64 µg/mL
- Minimum inhibitory concentration (MIC) [2]: 64 µg/mL
- Minimum inhibitory concentration (MIC) (MSSA ATCC 29213 SAU.42): 32 µg/mL
- Minimum inhibitory concentration (MIC) [3]: 32 µg/mL
- Minimum inhibitory concentration (MIC) [4]: 64 µg/mL
- Minimum inhibitory concentration (MIC) (MRSA ATCC 43300 SAU.399): 32 µg/mL
- Minimum inhibitory concentration (MIC) (WT ATCC 49619 SPN.31): 64 µg/mL
- Minimum inhibitory concentration (MIC) (ATCC 25922 ECO.35; ECO.35 (ATCC 25922), NBS 96-well plates): 8 µg/mL
- Minimum inhibitory concentration (MIC) (ATCC 25922 ECO.35; ECO.35, PS 96-well plates): 16 µg/mL
- Minimum inhibitory concentration (MIC) (ECO.2276; NBS 96-well plates): 8 µg/mL
- Minimum inhibitory concentration (MIC) (ECO.2276; PS 96-well plates): 16 µg/mL
- Antimicrobial activity (AU/ml) (C. difficile CL148): 0 AU/ml
- Antimicrobial activity (AU/ml) (C. difficile CL148; listed as Paenibacterin): no activity
- MIC [5]: 8 µg/mL
- MIC [6]: 8 µg/mL
- MIC [7]: 8 µg/mL
- MIC [8]: 2 µg/mL
